According to ChEMBL document CHEMBL1201862, “PubChem BioAssay data set” (2004):
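These data come from cells grown in 96-well plates and exposed to compound for 48 hours at five concentrations. GI50 is the concentration that inhibits growth by half.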 Active and inactive are the calls of the source. Rule as the data show it: active = GI50 up to about 1.1 µM and inactive = higher.

Legend:
Assay in all cases: growth of human tumour cells (NCI), 48 h
NCI/ADR-RES = tested on: NCI/ADR-RES
NCI-H460 = tested on: NCI-H460
KM12 = tested on: KM12
A498 = tested on: A498
UO-31 = tested on: UO-31
SK-OV-3 = tested on: SK-OV-3
SW-620 = tested on: SW-620
CAKI-1 = tested on: CAKI-1
OVCAR-3 = tested on: OVCAR-3
COLO 205 = tested on: COLO 205
M14 = tested on: M14
OVCAR-4 = tested on: OVCAR-4
SK-MEL-28 = tested on: SK-MEL-28
LOX IMVI = tested on: LOX IMVI
HOP-92 = tested on: HOP-92
K562 = tested on: K562
NCI-H23 = tested on: NCI-H23
HOP-62 = tested on: HOP-62
Malme-3M = tested on: Malme-3M
NCI-H522 = tested on: NCI-H522

Measured: GI50

CCOC(=O)c1cn(-c2ccccc2)c(=S)n2c1nc1ccccc12
inactive: NCI/ADR-RES 25.5 µM | NCI-H460 61.4 µM | KM12 33.7 µM | A498 23.9 µM | UO-31 7.67 µM | SK-OV-3 > 100 µM | SW-620 52.6 µM | CAKI-1 49 µM | OVCAR-3 52.2 µM | COLO 205 30.3 µM | M14 38.6 µM | OVCAR-4 37.4 µM | SK-MEL-28 28.2 µM | LOX IMVI > 67.1 µM | HOP-92 13.9 µM | K562 18.3 µM | NCI-H23 45.7 µM | HOP-62 53.2 µM

Cc1cccc2nc3cc(O)cc(O)c3c(O)c12
inactive: NCI/ADR-RES > 10 µM | NCI-H460 > 10 µM | KM12 > 10 µM | UO-31 > 10 µM | SK-OV-3 > 10 µM | SW-620 > 10 µM | CAKI-1 > 10 µM | OVCAR-3 > 10 µM | COLO 205 > 10 µM | Malme-3M > 10 µM | M14 > 10 µM | OVCAR-4 > 10 µM | SK-MEL-28 > 10 µM | LOX IMVI > 10 µM | HOP-92 > 10 µM | NCI-H522 > 10 µM | K562 > 10 µM | NCI-H23 > 10 µM | HOP-62 > 10 µM

CC(=O)OC(/C=C/c1ccccc1)=C(OC(C)C)/C1=C(\c2ccccc2)SCCCSC1=O
inactive: NCI/ADR-RES > 100 µM | NCI-H460 > 100 µM | KM12 > 100 µM | A498 > 100 µM | UO-31 > 100 µM | SK-OV-3 > 100 µM | SW-620 > 100 µM | CAKI-1 > 100 µM | OVCAR-3 > 100 µM | COLO 205 > 100 µM | Malme-3M > 100 µM | M14 > 100 µM | OVCAR-4 83.4 µM | SK-MEL-28 > 100 µM | LOX IMVI > 100 µM | HOP-92 > 100 µM | K562 > 100 µM | NCI-H23 > 100 µM | HOP-62 > 100 µM

CCNc1nc(N)c(C(=O)c2ccc(Cl)cc2)s1
inactive: NCI/ADR-RES 42.1 µM | NCI-H460 18.8 µM | KM12 30.3 µM | A498 20.8 µM | UO-31 15 µM | SK-OV-3 29.9 µM | SW-620 31.2 µM | OVCAR-3 19.9 µM | COLO 205 18.9 µM | Malme-3M > 100 µM | M14 44.6 µM | OVCAR-4 36.3 µM | SK-MEL-28 76.6 µM | LOX IMVI 40.1 µM | HOP-92 > 100 µM | K562 29.3 µM | NCI-H23 45.6 µM | HOP-62 44.2 µM

CCOC(=O)CCC(NC(=O)c1ccc(Nc2nc3ccccc3nc2-c2cccs2)cc1)C(=O)OCC (configuration not stated)
inactive: NCI/ADR-RES 21.3 µM | NCI-H460 25.1 µM | KM12 24.6 µM | A498 21.7 µM | UO-31 30.9 µM | SK-OV-3 28.6 µM | SW-620 33.8 µM | CAKI-1 29.8 µM | OVCAR-3 > 100 µM | COLO 205 25.2 µM | Malme-3M 24.1 µM | M14 > 100 µM | OVCAR-4 23.9 µM | SK-MEL-28 26.3 µM | LOX IMVI 23.1 µM | HOP-92 29.8 µM | K562 12.1 µM | NCI-H23 32.3 µM | HOP-62 > 100 µM

CC(Cc1ccc(O)cn1)(NC(=O)c1ccccc1)C(=O)O (configuration not stated)
inactive: NCI/ADR-RES > 100 µM | NCI-H460 > 100 µM | KM12 > 100 µM | UO-31 > 100 µM | SK-OV-3 > 100 µM | SW-620 > 100 µM | CAKI-1 > 100 µM | OVCAR-3 > 100 µM | COLO 205 > 100 µM | Malme-3M > 100 µM | M14 > 100 µM | OVCAR-4 > 100 µM | SK-MEL-28 > 100 µM | LOX IMVI > 100 µM | HOP-92 74 µM | NCI-H522 > 100 µM | K562 > 100 µM | NCI-H23 > 100 µM | HOP-62 > 100 µM
